Results as given in patent publication US5182279A, “Benzothienopyrazinedione compounds and their preparation and use” (Novo Nordisk A/S, priority 1990, dated 1993).

Tests used:
[1] = test system: glycine site coupled to the NMDA ionophor complex; details: literature, in words; cited from earlier work
[2] = target: T1, glycine site of the NMDA receptor complex (Rattus norvegicus, UniProt P35439); test: Antagonism of glycine enhanced [3H]-MK-801 binding (Test 2); details: dissociation constant of receptor-antagonist complex, Schild analysis; rat cerebral membrane homogenate, pH 7.40, 23° C., 60 min, 1 nM [3H]-MK-801, 300 nM glutamate
T1 construct: thawed rat cerebral cortical membrane homogenate; from tissue; host or cells: rat cerebral cortical membrane homogenate
Procedure: The glycine antagonism is measured by determining the Ki value which represents the dissociation constant (μM) of the receptor-antagonist complex.
Antagonism enhanced [^3 H]-MK-801 binding (Test 2)
1 ml of thawed and extensively washed rat cerebral membrane homogenate in HEPES-NaOH (20 mM) pH 7.40 were incubated at 23° C. for 60 min. with 25μl[^3 H]-MK-801 (1 nM final concentration), 25 μl glutamate (300 nM final concentration), test compound in concentrations corresponding to 0, 0.5, 2 and 5 times the IC50 value from the [^3 H]-glycine binding assay (test 1) for each concentration of glycine (10; 100; 1,000; 10,000 and 100,000 nM final concentration). The binding reaction was terminated by adding 5 ml of ice- cold buffer followed by rapid filtration through Whatman GF/C glass fiber filters and 5 ml wash with ice-cold buffer. Bound radioactivity was measured by scintillation counting. Ki values were determined by Schild analysis of the data using
log(dosis ration-1)=log[Inhibitor]-log(Ki)

[3] = test system: NMDA stimulated [3H]-GABA release from cultured mouse cerebral cortex interneurons; test: Inhibition of NMDA stimulated [3H]-GABA release from cultured mouse cerebral cortex interneurons (Test 3); format: cell-based; details: inhibits 50% of NMDA induced [3H]-GABA release, 3 μg/ml NMDA, 37° C.
Excerpt: The NMDA antagonistic properties of the compounds is illustrated by determining their capability to antagonize NMDA stimulated [^3 H]-GABA release from cultured mouse cortex neurons. The NMDA antagonistic activity of the compounds may be shown by determining the IC50 value, which represents the concentration (μM) which inhibits 50% of NMDA induced [^3H]-GABA release.
Inhibition of NMDA stimulated [^3 H]-GABA release from cultured mouse cerebral cortex interneurons (Test 3)
Release experiments are performed using the model described by Drejer et al. (Life Sci. 38, 2077 (1986)). To cerebral cortex interneurons cultured in petri dishes (30 mm) are added 100 μg/ml 3-vinyl-GABA one hour before the experiment in order to inhibit degradation of GABA in the neurons. 30 min. before the experiment 5 μCi [^3 H]-GABA added to each culture and after this preloading period the cells are washed twice with HEPES buffered saline (HBS) containing 10 mM HEPES, 135 mM NaCl, 5 mM KCl, 0.6 mM MgSO4, 1.0 mM CaCl2 and 6 mM D-glucose; pH 7 and placed in a superfusion system. This system consists of a peristaltic pump continuously delivering thermostated 37° C. superfusion medium from a reservoir to the top of a slightly tilted petri dish. The cell monolayer at the bottom of the dish is covered with a piece of nylon mesh to facilitate dispersion of medium over the cell layer. The medium is continuously collected from the lower part of the dish and delivered to a fraction collector. Initially, the cells are superfused with HBS for 15 min. (flow rate 2 ml/min.). Then cells are stimulated for 30 sec. every 4 min. by changing the superfusion medium from HBS to a corresponding medium containing NMDA and antagonist according to the following scheme:
Stimulation no. 1: 3 μg/ml NMDA
Stimulation no. 2: 3 μg/ml NMDA +0.3 μg/ml antagonist
Stimulation no. 3: 3 μg/ml NMDA +3.0 μg/ml antagonist
The release of [^3 H]-GABA in the presence of NMDA is corrected for the mean basal release before and after stimulation. The stimulated release in the presence of antagonist is expressed relative to the stimulated release by NMDA alone and the IC50 value is calculated.

[4] = target: T1, glycine site of the NMDA receptor complex; test: [3H]-glycine binding (Test 1); details: displacement of 50% of specific [3H]-glycine binding; rat cerebral cortical membrane homogenate, pH 7.1, 0° C., 10 min
Procedure: The glycine site binding activity of these compounds of the present invention can be illustrated by determining their capability for displacing radioactively labelled glycine from the glycine site.
The displacement activity of the compounds may be shown by determining the IC50 value which represents the concentration (μM) which causes a displacement of 50% of the specific binding of [^3 H]-glycine.
^3 H]-glycine binding (Test 1)
1 ml of thawed rat cerebral cortical membrane homogenate in HEPES-Tris (5 mM) and MgCl2 (1 mM) pH 7.1 were incubated at 0° C. for 10 min. with […] and the test compound and buffer. Non-specific binding was determined by incubating with D-serine (1 mM final concentration). The binding reaction was terminated by centrifugation at 15,000 ×g at 4° C. followed by washing of the pellet with three times 3 ml of ice-cold buffer. Bound radioactivity was measured by scintillation counting. IC50 was determined by Hill analysis of at least four concentrations of test compound.

Compound	Ki [2] [µM]	IC50 [3] [µM]	IC50 [4] [µM]	activity at the glycine site [1]
N#Cc1cc2[nH]c(=O)c(=O)[nH]c2cc1[N+](=O)[O-] [CNQX, 6-cyano-7-nitroquinoxaline 2,3-dione]				weak antagonists
C[C@@H](N)C(=O)O [D-alanine]				strong agonist activity
N[C@@H]1CONC1=O [D-cycloserine]				partial agonists
N[C@H](CO)C(=O)O [D-serine]				strong agonist activity
O=c1[nH]c2sc3cc(Cl)ccc3c2[nH]c1=O [Example 5, 7-Chloro[1]benzothieno[2,3-b]pyrazine-2,3(1H,4H)-dione]			6	
O=C(O)c1cc(O)c2ccc(Cl)cc2n1 [Example 7-Cl-Kyn, 7-chlorokynurenic acid, reference compound]	0.71	1.3	1.4	quite strong antagonists
O=c1[nH]c2sc3ccc(C(F)(F)F)cc3c2[nH]c1=O [Example 9, 8-Trifluoromethyl[1]benzothieno[2,3-b]pyrazine-2,3-(1H, 4H)-dione]			7	
COc1cccc2c1sc1[nH]c(=O)c(=O)[nH]c12 [Example 10, 6-Methoxy[1]benzothieno[2,3-b]pyrazine-2,3(lH,4H)-dione]			10.8	
COc1ccc2c(c1)sc1[nH]c(=O)c(=O)[nH]c12 [Example 11, 7-Methoxy[1]benzothieno[2,3-b]pyrazine-2,3(lH,4H)-dione]			15	
NC1CCN(O)C1=O (centres unmarked) [HA-966, 3-amino-1-hydroxy-2-pyrrolidone, reference compound]	16	25	13	weak antagonists

Second part, led by results:

Ki [2] [µM]	IC50 [3] [µM]	IC50 [4] [µM]	Compound	activity at the glycine site [1]
0.008	0.039	0.052	O=c1[nH]c2sc3ccc(F)cc3c2[nH]c1=O [Example 1, 8-Fluoro[1]benzothieno[2,3-b]pyrazine-2,3(1H,4H)-dione]	
0.04	0.011	0.056	O=c1[nH]c2sc3ccc(Cl)cc3c2[nH]c1=O [Example 2, 8-Chloro[1] benzothieno[2,3-b]pyrazine-2,3(1H,4H)-dione]	
0.208	0.085	0.284	O=c1[nH]c2sc3ccccc3c2[nH]c1=O [Example 3, [1]Benzothieno[2,3-b]pyrazine-2,3(1H,4H)-dione]	
0.018		0.069	O=c1[nH]c2sc3ccc(Br)cc3c2[nH]c1=O [Example 4, 8-Bromo[1]benzothieno[2,3-b]pyrazine-2,3(lH,4H)-dione]	
	0.068	0.312	O=c1[nH]c2sc3c(Cl)cc(Cl)cc3c2[nH]c1=O [Example 7, 6,8-Dichloro[1]benzothieno[2,3-b]pyrazine-2,3(1H,4H)dione]	
	0.112	1	O=c1[nH]c2sc3ccc(I)cc3c2[nH]c1=O [Example 8, 8-Iodo[1]benzothieno[2,3-b]pyrazine-2,3(1H,4H)-dione]	
0.041		0.18	O=c1[nH]c2sc3c(Cl)cccc3c2[nH]c1=O [Example 12, 6-Chloro[1]benzothieno[2,3-b]pyrazine-2,3(lH,4H)-dione]	
		0.262	O=c1[nH]c2sc3c(F)cccc3c2[nH]c1=O [Example 13, 6-Fluoro[1]benzothieno[2,3-b]pyrazine-2,3(lH,4H)-dione]	
		0.54	O=c1[nH]c2sc3cc(Br)c(F)cc3c2[nH]c1=O [Example 14, 7-Bromo-8-fluoro[1]benzothieno[2,3-b]pyrazine-2,3-(1H,4H)-dione]	
